Laboratory results reported in patent US8889677B2, “Substituted triazoles useful as mGlu5 receptor modulators” (Boehringer Ingellheim International GmbH, priority 2012, dated 2014).

Target: T1, human recombinant mGluR5 (Homo sapiens, UniProt P41594)
T1 construct: expressed in transfected cells; host or cells: HEK 293 cell line cultured with tetracycline, hygromycin and geneticin; tetracycline removed 3-7 days before the assay
Assay: positive modulation of mGluR5, calcium based FLIPR assay in HEK 293 cells
Settings: HEK 293 cell line expressing human recombinant mGluR5; EC50 of the modulation of the glutamate response (glutamate approx. 5% basal stimulation); peak height of Ca release fluorescence signal
Procedure, shortened: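 HEK 293 cells expressing human mGluR5 (tetracycline-free medium 3-7 days before), loaded with Calcium-4 dye, in Ringer buffer pH 7.4, 1% DMSO. Compound pre-incubated 5 min, then glutamate at about 5% of maximal effect added; EC50 from peak Ca2+ fluorescence by nonlinear regression, scaled between DMSO (100%) and 10 μM CDPPB (200%) controls.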

T1 sequence (P41594 21-1212): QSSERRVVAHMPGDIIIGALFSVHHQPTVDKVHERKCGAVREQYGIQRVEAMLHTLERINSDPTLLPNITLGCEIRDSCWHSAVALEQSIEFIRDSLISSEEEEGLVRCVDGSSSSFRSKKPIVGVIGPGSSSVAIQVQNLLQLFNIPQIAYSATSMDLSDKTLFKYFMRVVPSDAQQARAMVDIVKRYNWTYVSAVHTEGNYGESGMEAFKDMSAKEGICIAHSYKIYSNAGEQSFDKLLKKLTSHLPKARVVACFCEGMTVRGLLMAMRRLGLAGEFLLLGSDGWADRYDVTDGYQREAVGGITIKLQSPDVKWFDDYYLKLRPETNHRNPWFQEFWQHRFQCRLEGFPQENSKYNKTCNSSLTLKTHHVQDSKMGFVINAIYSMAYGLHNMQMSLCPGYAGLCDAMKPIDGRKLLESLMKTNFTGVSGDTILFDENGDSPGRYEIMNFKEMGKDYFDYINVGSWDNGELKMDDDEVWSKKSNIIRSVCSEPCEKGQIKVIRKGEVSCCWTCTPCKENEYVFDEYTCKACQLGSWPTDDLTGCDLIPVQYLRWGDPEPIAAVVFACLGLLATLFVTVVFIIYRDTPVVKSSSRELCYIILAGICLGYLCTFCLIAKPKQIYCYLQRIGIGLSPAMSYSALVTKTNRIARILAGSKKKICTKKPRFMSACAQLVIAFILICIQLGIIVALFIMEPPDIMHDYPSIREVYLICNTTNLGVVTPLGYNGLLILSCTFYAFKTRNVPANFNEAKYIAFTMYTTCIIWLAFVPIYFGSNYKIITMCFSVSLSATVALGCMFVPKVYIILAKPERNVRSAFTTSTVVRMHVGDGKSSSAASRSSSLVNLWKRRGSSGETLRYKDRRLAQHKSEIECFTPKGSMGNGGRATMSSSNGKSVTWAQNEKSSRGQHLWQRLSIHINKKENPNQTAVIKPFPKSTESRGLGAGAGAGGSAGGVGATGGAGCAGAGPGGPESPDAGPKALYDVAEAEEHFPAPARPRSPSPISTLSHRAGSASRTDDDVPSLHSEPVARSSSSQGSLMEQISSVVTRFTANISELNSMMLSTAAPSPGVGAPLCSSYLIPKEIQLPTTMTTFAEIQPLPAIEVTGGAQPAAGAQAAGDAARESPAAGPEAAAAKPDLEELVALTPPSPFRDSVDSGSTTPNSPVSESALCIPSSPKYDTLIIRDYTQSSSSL

SMILES | EC50 [nM]
CCC(C)c1nc(-c2ccc(F)c(C)c2)nn1CC(=O)N1CCN(c2cc(C)ccn2)CC1 (centres unmarked) [Example 07.04.099.] | 499
CCC(C)c1nc(-c2ccc(F)c(C)c2)nn1CC(=O)N1CCN(c2cc(OC)ccn2)CC1 (centres unmarked) [Example 07.04.0100.] | 670
CCC(C)c1nc(-c2ccc(F)c(C)c2)nn1CC(=O)N1CCN(c2ncccn2)CC1 (centres unmarked) [Example 07.04.101.] | 294
CCC(C)c1nc(-c2ccc(F)c(C)c2)nn1CC(=O)N1CCN(c2ccccn2)CC1 (centres unmarked) [Example 07.04.102.] | 998
CCC(C)c1nc(-c2ccc(F)c(C)c2)nn1CC(=O)N1CCN(c2cc(OC)ncn2)CC1 (centres unmarked) [Example 07.04.103.] | 748
CCC(C)c1nc(-c2ccc(F)c(C)c2)nn1CC(=O)N1CCN(c2cccnn2)CC1 (centres unmarked) [Example 07.04.104.] | 1850
Cc1ccnc(N2CCN(C(=O)Cn3nc(-c4ccc(F)c(C)c4)nc3CC(C)C)CC2)c1 [Example 07.04.105.] | 382
Cc1cc(-c2nc(CC(C)C)n(CC(=O)N3CCN(c4ccccn4)CC3)n2)ccc1F [Example 07.04.106.] | 387
COc1ccnc(N2CCN(C(=O)Cn3nc(-c4ccc(F)c(C)c4)nc3CC(C)C)CC2)c1 [Example 07.04.107.] | 500
Cc1cc(-c2nc(CC(C)C)n(CC(=O)N3CCN(c4ncccn4)CC3)n2)ccc1F [Example 07.04.108.] | 317
COc1cc(N2CCN(C(=O)Cn3nc(-c4ccc(F)c(C)c4)nc3CC(C)C)CC2)ncn1 [Example 07.04.109.] | 824
COc1ccnc(N2CCN(C(=O)Cn3nc(-c4ccc(F)c(C)c4)nc3C3CCCC3)CC2)c1 [Example 07.04.110.] | 409
Cc1cc(-c2nc(C3CCCC3)n(CC(=O)N3CCN(c4ncccn4)CC3)n2)ccc1F [Example 07.04.111.] | 131
COc1cc(N2CCN(C(=O)Cn3nc(-c4ccc(F)c(C)c4)nc3C3CCCC3)CC2)ncn1 [Example 07.04.112.] | 311
Cc1cc(-c2nc(C3CCCC3)n(CC(=O)N3CCN(c4ccccn4)CC3)n2)ccc1F [Example 07.04.113.] | 263
Cc1ccnc(N2CCN(C(=O)Cn3nc(-c4ccc(F)c(C)c4)nc3C3CCCC3)CC2)c1 [Example 07.04.114.] | 495
CCCCc1nc(-c2ccc(F)c(C)c2)nn1CC(=O)N1CCN(c2cc(C)ccn2)CC1 [Example 07.04.115.] | 208
CCCCc1nc(-c2ccc(F)c(C)c2)nn1CC(=O)N1CCN(c2ccccn2)CC1 [Example 07.04.116.] | 697
CCCCc1nc(-c2ccc(F)c(C)c2)nn1CC(=O)N1CCN(c2ncccn2)CC1 [Example 07.04.117.] | 390
CCCCc1nc(-c2ccc(F)c(C)c2)nn1CC(=O)N1CCN(c2cc(OC)ccn2)CC1 [Example 07.04.118.] | 255
CCCCc1nc(-c2ccc(F)c(C)c2)nn1CC(=O)N1CCN(c2cc(OC)ncn2)CC1 [Example 07.04.119.] | 298

SMILES | EC50 [nM]
COc1ccnc(N2CCN(C(=O)Cn3nc(-c4ccc(F)c(C)c4)nc3CCC(C)C)CC2)c1 [Example 07.04.120.] | 153
Cc1ccnc(N2CCN(C(=O)Cn3nc(-c4ccc(F)c(C)c4)nc3CCC(C)C)CC2)c1 [Example 07.04.121.] | 209
Cc1cc(-c2nc(CCC(C)C)n(CC(=O)N3CCN(c4ncccn4)CC3)n2)ccc1F [Example 07.04.122.] | 140
CCCCCc1nc(-c2ccc(F)c(C)c2)nn1CC(=O)N1CCN(c2cc(OC)ccn2)CC1 [Example 07.04.123.] | 92
CCCCCc1nc(-c2ccc(F)c(C)c2)nn1CC(=O)N1CCN(c2ccccn2)CC1 [Example 07.04.124.] | 125
CCCCCc1nc(-c2ccc(F)c(C)c2)nn1CC(=O)N1CCN(c2cc(C)ccn2)CC1 [Example 07.04.125.] | 109
CCCCCc1nc(-c2ccc(F)c(C)c2)nn1CC(=O)N1CCN(c2cc(OC)ncn2)CC1 [Example 07.04.126.] | 110
CCCCCc1nc(-c2ccc(F)c(C)c2)nn1CC(=O)N1CCN(c2ncccn2)CC1 [Example 07.04.127.] | 64
Cc1cc(-c2nc(C3CCC(C)CC3)n(CC(=O)N3CCN(c4ncccn4)CC3)n2)ccc1F (centres unmarked) [Example 07.04.128.] | 485
Cc1cc(-c2nc(C3CCC(C)CC3)n(CC(=O)N3CCN(c4ccccn4)CC3)n2)ccc1F (centres unmarked) [Example 07.04.129.] | 1320
Cc1ccnc(N2CCN(C(=O)Cn3nc(-c4ccc(F)c(C)c4)nc3C3CCC(C)CC3)CC2)c1 (centres unmarked) [Example 07.04.130.] | 848
COc1ccnc(N2CCN(C(=O)Cn3nc(-c4ccc(F)c(C)c4)nc3C3CCC(C)CC3)CC2)c1 (centres unmarked) [Example 07.04.131.] | 1000
COc1cc(N2CCN(C(=O)Cn3nc(-c4ccc(F)c(C)c4)nc3C3CCC(C)CC3)CC2)ncn1 (centres unmarked) [Example 07.04.132.] | 960
Cc1cc(-c2nc(C3CCCCC3C)n(CC(=O)N3CCN(c4ccccn4)CC3)n2)ccc1F (centres unmarked) [Example 07.04.133.] | 1080
Cc1ccnc(N2CCN(C(=O)Cn3nc(-c4ccc(F)c(C)c4)nc3C3CCCCC3C)CC2)c1 (centres unmarked) [Example 07.04.134.] | 1030
Cc1cc(-c2nc(C3CCCCC3C)n(CC(=O)N3CCN(c4ncccn4)CC3)n2)ccc1F (centres unmarked) [Example 07.04.135.] | 392
COc1ccnc(N2CCN(C(=O)Cn3nc(-c4ccc(F)c(C)c4)nc3C3CCCCC3C)CC2)c1 (centres unmarked) [Example 07.04.136.] | 1220
COc1cc(N2CCN(C(=O)Cn3nc(-c4ccc(F)c(C)c4)nc3C3CCCCC3C)CC2)ncn1 (centres unmarked) [Example 07.04.137.] | 1050
Cc1ccnc(N2CCN(C(=O)Cn3nc(-c4ccc(F)cn4)nc3-c3ccc(F)cc3)CC2)c1 [Example 07.04.138.] | 1010
O=C(Cn1nc(-c2ccc(F)cn2)nc1-c1ccc(F)cc1)N1CCN(c2ccccn2)CC1 [Example 07.04.139.] | 809

The remaining lines, values ahead:

EC50 [nM] | SMILES
320 | O=C(Cn1nc(-c2ccc(F)cn2)nc1-c1ccc(F)cc1)N1CCN(c2ncccn2)CC1 [Example 07.04.140.]
932 | COc1cc(N2CCN(C(=O)Cn3nc(-c4ccc(F)cn4)nc3-c3ccc(F)cc3)CC2)ncn1 [Example 07.04.141.]
434 | COc1ccnc(N2CCN(C(=O)Cn3nc(-c4ccc(F)cn4)nc3-c3ccc(F)cc3)CC2)c1 [Example 07.04.142.]
783 | Cc1ccnc(N2CCN(C(=O)Cn3nc(-c4ccc(F)cc4)nc3-c3ccc(F)cn3)CC2)c1 [Example 07.04.143.]
1270 | Cc1cc(-c2nc(C3CCC(F)(F)CC3)n(CC(=O)N3CCN(c4ncccn4)CC3)n2)ccc1F [Example 07.04.144.]
373 | Cc1cc(-c2nc(C3CCCC(C)C3)n(CC(=O)N3CCN(c4ncccn4)CC3)n2)ccc1F (centres unmarked) [Example 07.04.145.]
1340 | Cc1ccnc(N2CCN(C(=O)Cn3nc(-c4ccc(F)c(C)c4)nc3C3CCCC(C)C3)CC2)c1 (centres unmarked) [Example 07.04.146.]
713 | COc1cc(N2CCN(C(=O)Cn3nc(-c4ccc(F)c(C)c4)nc3C3CCCC(C)C3)CC2)ncn1 (centres unmarked) [Example 07.04.147.]
918 | COc1ccnc(N2CCN(C(=O)Cn3nc(-c4ccc(F)c(C)c4)nc3C3CCCC(C)C3)CC2)c1 (centres unmarked) [Example 07.04.148.]
869 | Cc1cc(-c2nc(C3CCCC(C)C3)n(CC(=O)N3CCN(c4ccccn4)CC3)n2)ccc1F (centres unmarked) [Example 07.04.149.]
323 | O=C(Cn1nc(-c2ccc(F)cc2)nc1CCc1ccccc1)N1CCN(c2ncccn2)CC1 [Example 07.04.150.]
560 | Cc1ccnc(N2CCN(C(=O)Cn3nc(-c4ccc(F)cc4)nc3CCc3ccccc3)CC2)c1 [Example 07.04.151.]
174 | COc1ccc(-c2nc(-c3ccccc3)n(CC(=O)N3CCN(c4cc(OC)ncn4)CC3)n2)cc1 [Example 07.04.152.]
22 | Cc1cc(-c2nc(-c3ccc(F)c(C)c3)n(CC(=O)N3CCN(c4ncccn4)CC3)n2)ccc1F [Example 07.04.153.]
54 | Cc1cc(-c2nc(-c3ccc(F)c(C)c3)n(CC(=O)N3CCN(c4ccccn4)CC3)n2)ccc1F [Example 07.04.154.]
59 | COc1cc(N2CCN(C(=O)Cn3nc(-c4ccc(F)c(C)c4)nc3-c3ccc(F)c(C)c3)CC2)ncn1 [Example 07.04.155.]
18 | COc1cc(-c2nc(-c3ccc(F)cc3)n(CC(=O)N3CCN(c4ncccn4)CC3)n2)ccc1F [Example 07.04.156.]
36 | COc1cc(-c2nc(-c3ccc(F)cc3)n(CC(=O)N3CCN(c4ccccn4)CC3)n2)ccc1F [Example 07.04.157.]
27 | COc1cc(N2CCN(C(=O)Cn3nc(-c4ccc(F)c(OC)c4)nc3-c3ccc(F)cc3)CC2)ncn1 [Example 07.04.158.]
282 | COc1ccc(-c2nc(-c3ccccc3)n(CC(=O)N3CCN(c4cccc(OC)n4)CC3)n2)cc1 [Example 07.04.159.]
80 | COc1ccc(-c2nc(-c3ccccc3)n(CC(=O)N3CCN(c4cc(C)ccn4)CC3)n2)cc1 [Example 07.04.160.]
1520 | COc1cccc(-c2nc(C(C)C)n(CC(=O)N3CCN(c4ncccn4)CC3)n2)c1 [Example 07.04.161.]
19 | COc1cc(N2CCN(C(=O)Cn3nc(-c4ccc(OC(F)F)cc4)nc3-c3ccccc3)CC2)ncn1 [Example 7.04.162]
850 | CCc1nc(-c2ccc(OC(F)F)cc2)nn1CC(=O)N1CCN(c2ncccn2)CC1 [Example 7.04.163]
22 | O=C(Cn1nc(-c2ccc(OC(F)F)cc2)nc1-c1ccccc1)N1CCN(c2ccccn2)CC1 [Example 7.04.164]
13 | O=C(Cn1nc(-c2ccc(OC(F)F)cc2)nc1-c1ccccc1)N1CCN(c2ncccn2)CC1 [Example 7.04.165]
431 | O=C(Cn1nc(-c2ccccc2)nc1-c1ccc(OC(F)F)cc1)N1CCN(c2ccccn2)CC1 [Example 7.04.166]
